Biological target: μ-opioid receptor (Homo sapiens (Human), UniProt P35372)
Experiment: μ-opioid receptor [35S]GTPγS functional assay, HEK-293 cells (Table 6)
Format: biochemical
Conditions: for EC50: μ GTP
Procedure: μ-Opioid Receptor Functional Assay Procedures: [^35S]GTPγS functional assays were conducted using freshly thawed μ-receptor membranes prepared in-house from a cell line expressing recombinant μ opioid receptor in a HEK-293, CHO or U-2 OS cell background, or purchased from a commercial source (Perkin Elmer, Shelton, Conn.; or DiscovRx, Fremont, Calif.). Assay reactions were prepared by sequentially adding the following reagents to binding buffer (100 mM NaCl, 10 mM MgCl2, 20 mM HEPES, pH 7.4) on ice (final concentrations indicated): membrane protein (0.026 mg/mL), saponin ([…]), GDP ([…]) and [^35S]GTPγS (0.20 nM; Perkin Elmer, Shelton, Conn.). The prepared membrane solution (190 μl/well) was transferred to 96-shallow well polypropylene plates containing 10 μl of 20× concentrated stock solutions of the agonist [D-Ala^2, N-methyl-Phe^4 Gly-ol^5]-enkephalin (DAMGO) prepared in dimethyl sulfoxide (DMSO). Plates were incubated for 30 min at about 25° C. with shaking Reactions were terminated by rapid filtration onto 96-well Unifilter GF/B filter plates (Perkin Elmer, Shelton, Conn.) using a 96-well tissue harvester (Perkin Elmer, Shelton, Conn.) followed by three filtration washes with 200 μl of ice-cold wash buffer (10 mM NaH2PO4, 10 mM Na2HPO4, pH 7.4). Filter plates were subsequently dried at 50° C. for 2-3 hours. BetaScint scintillation cocktail (Perkin Elmer, Shelton, Conn.) was added (50 μl/well) and plates were counted using a Packard Top-Count for 1 min/well. Data were analyzed using the sigmoidal dose-response curve fitting functions in GraphPad PRISM v. 3.0, or an in-house function for non-linear, sigmoidal dose-response curve-fitting. [^35S]GTPγS functional assays can also be conducted using freshly thawed μ-receptor membranes prepared from a cell line expressing recombinant μ opioid receptor in a CHO-K1 cell background.
μ GTP Emax (%) is the maximal effect elicited by a compound relative to the effect elicited by DAMGO, a standard μ agonist. Generally, the μ GTP Emax (%) value measures the efficacy of a compound to treat or prevent pain or other Conditions.
The following TABLE 6 provides results on the activity response of certain Compounds of the Invention at the μ- and κ-opioid receptors determined as described above using HEK-293 cells.

O=C(NCc1cccc(Cl)c1)[C@@H]1C[C@]23CCN(CC4CC4)[C@H](Cc4ccc(O)cc42)[C@]3(O)C1 [Compound 152, (2R,3aS,4R,9bS)-N-(3-chlorobenzyl)-12-(cyclopropylmethyl)-3a,8-dihydroxy-1,2,3,3a,4,5-hexahydro-4,9b-(epimino-ethano)cyclopenta[a]naphthalene-2-carboxamide]
Emax (relative to DAMGO): 4.45 ± 3.18% | EC50 (bound given in μM): > 20 µM

O=S(=O)(N[C@@H]1C[C@]23CCN(CC4CC4)[C@H](Cc4ccc(O)cc42)[C@]3(O)C1)c1ccccc1 [Compound 95, N-((2R,3aS,4R,9bR)-12-(cyclopropyl-methyl)-3a,8-dihydroxy-1,2,3,3a,4,5-hexahydro-4,9b-(epiminoethano)-cyclopenta[a]naphthalen-2-yl)benzene-sulfonamide]
Emax (relative to DAMGO): 1% | EC50 (bound given in μM): > 20 µM

Cc1c(Cl)cccc1CNC(=O)[C@H]1C[C@]23CCN(CC4CC4)[C@H](Cc4ccc(O)cc42)[C@]3(O)C1 [Compound 138, (2S,3aS,4R,9bS)-N-(3-chloro-2-methylbenzyl)-12-(cyclopropylmethyl)-3a,8-dihydroxy-1,2,3,3a,4,5-hexahydro-4,9b-(epiminoethano)cyclopenta-[a]naphthalene-2-carboxamide]
Emax (relative to DAMGO): 52.4 ± 1.72% | EC50: 0.00071 ± 6.8e-05 µM

CN1CC[C@]23C[C@@H](C(=O)NCCO)C[C@@]2(O)[C@H]1Cc1ccc(O)cc13 [Compound 114, (2R,3aS,4R,9bS)-3a,8-dihydroxy-N-(2-hydroxyethyl)-12-methyl-1,2,3,3a,4,5-hexahydro-4,9b-(epiminoethano)cyclo-penta[a]naphthalene-2-carboxamide]
Emax (relative to DAMGO): 23 ± 1.54% | EC50: 8.44 ± 1.54 µM

O=C(NCc1cc(Cl)ccc1Cl)[C@@H]1C[C@]23CCN(CC4CC4)[C@H](Cc4ccc(O)cc42)[C@]3(O)C1 [Compound 151, (2R,3aS,4R,9bS)-12-(cyclopropylmethyl)-N-(2,5-dichlorobenzyl)-3a,8-dihydroxy-1,2,3,3a,4,5-hexahydro-4,9b-(epimino-ethano)cyclopenta[a]naphthalene-2-carboxamide]
Emax (relative to DAMGO): -1% | EC50 (bound given in μM): > 20 µM

CN1CC[C@]23C[C@@H](C(=O)NCc4ccc(O)cc4O)C[C@@]2(O)[C@H]1Cc1ccc(O)cc13 [Compound 98, (2R,3aS,4R,9bS)-N-(2,4-dihydroxy-benzyl)-3a,8-dihydroxy-12-methyl-1,2,3,3a,4,5-hexahydro-4,9b-(epiminoethano)cyclopenta[a]naphthalene-2-carboxamide]
Emax (relative to DAMGO): 26.7 ± 0.67% | EC50: 1.29 ± 0.223 µM

O=C(NCc1ccc(O)cc1Cl)[C@@H]1C[C@]23CCN(CC4CC4)[C@H](Cc4ccc(O)cc42)[C@]3(O)C1 [Compound 127, (2R,3aS,4R,9bS)-N-(2-chloro-4-hydroxybenzyl)-12-(cyclopropylmethyl)-3a,8-dihydroxy-1,2,3,3a,4,5-hexahydro-4,9b-(epiminoethano)cyclopenta-[a]naphthalene-2-carboxamide]
Emax (relative to DAMGO): -1% | EC50 (bound given in μM): > 20 µM

CN1CC[C@]23C[C@@H](C(=O)NCc4ccc(Cl)cc4Cl)C[C@@]2(O)[C@H]1Cc1ccc(O)cc13 [Compound 103, (2R,3aS,4R,9bS)-N-(2,4-dichlorobenzyl)-3a,8-dihydroxy-12-methyl-1,2,3,3a,4,5-hexahydro-4,9b-(epiminoethano)cyclo-penta[a]naphthalene-2-carboxamide]
Emax (relative to DAMGO): 68 ± 9.54% | EC50: 0.389 ± 0.0733 µM

CN1CC[C@]23C[C@H](NC(=O)c4ccccc4)C[C@@]2(O)[C@H]1Cc1ccc(O)cc13 [Compound 109, N-((2S,3aS,4R,9bR)-3a,8-dihydroxy-12-methyl-1,2,3,3a,4,5-hexahydro-4,9b-(epiminoethano)cyclopenta[a]naphthalen-2-yl)benzamide]
Emax (relative to DAMGO): 70.4 ± 0.98% | EC50: 0.0804 ± 0.0141 µM

(2R,3aS,4R,9bS)-N-(2-chlorobenzyl)-12- (cyclopropylmethyl)-3a,8-dihydroxy- 1,2,3,3a,4,5-hexahydro-4,9b-(epimino- ethano)cyclopenta[a]naphthalene-2- carboxamide [Compound 148]
μ Emax (%) (relative to DAMGO): 1.00% | EC50 (bound given in μM): > 20 µM

O=C(NCc1cc(Cl)cc(Cl)c1)[C@@H]1C[C@]23CCN(CC4CC4)[C@H](Cc4ccc(O)cc42)[C@]3(O)C1 [Compound 150, (2R,3aS,4R,9bS)-12-(cyclopropylmethyl)-N-(3,5-dichlorobenzyl)-3a,8-dihydroxy-1,2,3,3a,4,5-hexahydro-4,9b-(epimino-ethano)cyclopenta[a]naphthalene-2-carboxamide]
Emax (relative to DAMGO): -1% | EC50 (bound given in μM): > 20 µM

Cc1ccc(CNC(=O)[C@@H]2C[C@]34CCN(CC5CC5)[C@H](Cc5ccc(O)cc53)[C@]4(O)C2)cc1Cl [Compound 126, (2R,3aS,4R,9bS)-N-(3-chloro-4-methylbenzyl)-12-(cyclopropylmethyl)-3a,8-dihydroxy-1,2,3,3a,4,5-hexahydro-4,9b-(epiminoethano)cyclopenta-[a]naphthalene-2-carboxamide]
Emax (relative to DAMGO): -1% | EC50 (bound given in μM): > 20 µM

CC(C)CNC(=O)[C@H]1C[C@]23CCN(C)[C@H](Cc4ccc(O)cc42)[C@]3(O)C1 [Compound 102, (2S,3aS,4R,9bS)-3a,8-dihydroxy-N-isobutyl-12-methyl-1,2,3,3a,4,5-hexahydro-4,9b-(epiminoethano)cyclo-penta[a]naphthalene-2-carboxamide]
Emax (relative to DAMGO): 49.5 ± 4.94% | EC50: 0.655 ± 0.128 µM

O=C(NCc1cccc(O)c1O)[C@H]1C[C@]23CCN(CC4CC4)[C@H](Cc4ccc(O)cc42)[C@]3(O)C1 [Compound 141, (2S,3aS,4R,9bS)-12-(cyclopropylmethyl)-N-(2,3-dihydroxybenzyl)-3a,8-dihydroxy-1,2,3,3a,4,5-hexabydro-4,9b-(epimino-ethano)cyclopenta[a]naphthalene-2-carboxamide]
Emax (relative to DAMGO): 47.4 ± 0.83% | EC50: 0.00117 ± 0.0001 µM

Cc1ccc(CNC(=O)[C@H]2C[C@]34CCN(CC5CC5)[C@H](Cc5ccc(O)cc53)[C@]4(O)C2)cc1Cl [Compound 137, (2S,3aS,4R,9bS)-N-(3-chloro-4-methylbenzyl)-12-(cyclopropylmethyl)-3a,8-dihydroxy-1,2,3,3a,4,5-hexahydro-4,9b-(epiminoethano)cyclopenta-[a]naphthalene-2-carboxamide]
Emax (relative to DAMGO): 55.5 ± 0.31% | EC50: 0.00045 ± 6.1e-05 µM

Cc1ccc(CNC(=O)[C@H]2C[C@]34CCN(CC5CC5)[C@H](Cc5ccc(C#N)cc53)[C@]4(O)C2)cc1 [Compound 121, (2S,3aS,4R,9bS)-8-cyano-12-(cyclopropylmethyl)-3a-hydroxy-N-(4-methylbenzyl)-1,2,3,3a,4,5-hexahydro-4,9b-(epiminoethano)cyclopenta-[a]naphthalene-2-carboxamide]
Emax (relative to DAMGO): 29.3 ± 1.78% | EC50: 1.09 ± 0.0702 µM

O=C(NCc1ccc(F)c(F)c1)[C@@H]1C[C@]23CCN(CC4CC4)[C@H](Cc4ccc(O)cc42)[C@]3(O)C1 [Compound 145, (2R,3aS,4R,9bS)-12-(cyclopropylmethyl)-N-(3,4-difluorobenzyl)-3a,8-dihydroxy-1,2,3,3a,4,5-hexahydro-4,9b-(epimino-ethano)cyclopenta[a]naphthalene-2-carboxamide]
Emax (relative to DAMGO): -1% | EC50 (bound given in μM): > 20 µM

Cc1ccc(CNC(=O)[C@@H]2C[C@]34CCN(C)[C@H](Cc5ccc(O)cc53)[C@]4(O)C2)cc1 [Compound 104, (2R,3aS,4R,9bS)-3a,8-dihydroxy-12-methyl-N-(4-methylbenzyl)-1,2,3,3a,4,5-hexahydro-4,9b-(epiminoethano)cyclo-penta[a]naphthalene-2-carboxamide]
Emax (relative to DAMGO): 52 ± 3.51% | EC50: 2.93 ± 1.08 µM

O=C(NCc1cc(F)cc(F)c1)[C@H]1C[C@]23CCN(CC4CC4)[C@H](Cc4ccc(O)cc42)[C@]3(O)C1 [Compound 143, (2S,3aS,4R,9bS)-12-(cyclopropylmethyl)-N-(3,5-difluorobenzyl)-3a,8-dihydroxy-1,2,3,3a,4,5-hexahydro-4,9b-(epimino-ethano)cyclopenta[a]naphthalene-2-carboxamide]
Emax (relative to DAMGO): 39.9 ± 1.01% | EC50: 0.00209 ± 0.00045 µM

C[C@@H]1CN(CCNC(=O)[C@H]2C[C@]34CCN(CC5CC5)[C@H](Cc5ccc(O)cc53)[C@]4(O)C2)C[C@H](C)O1 [Compound 135, (2S,3aS,4R,9bS)-12-(cyclopropylmethyl)-N-(2-((2S,6R)-2,6-dimethylmorpholino)-ethyl)-3a,8-dihydroxy-1,2,3,3a,4,5-hexahydro-4,9b-(epiminoethano)cyclo-penta[a]naphthalene-2-carboxamide]
Emax (relative to DAMGO): 19.7 ± 0.89% | EC50: 0.0103 ± 0.00103 µM

O=C(NCc1ccc(Cl)cc1F)[C@@H]1C[C@]23CCN(CC4CC4)[C@H](Cc4ccc(O)cc42)[C@]3(O)C1 [Compound 136, (2R,3aS,4R,9bS)-N-(4-chloro-2-fluorobenzyl)-12-(cyclopropylmethyl)-3a,8-dihydroxy-1,2,3,3a,4,5-hexahydro-4,9b-(epiminoethano)cyclopenta-[a]naphthalene-2-carboxamide]
Emax (relative to DAMGO): -0.33 ± 0.67% | EC50 (bound given in μM): > 20 µM

From patent US9656962B2, “Ring-contracted morphinans and the use thereof” (Purdue Pharma L.P., priority 2013, dated 2017)
